The source of these data is ChEMBL document CHEMBL2146358, “Discovery of amide based fibrates as possible antidyslipidemic and antioxidant agents” (2012).

What all share (format): functional
For experiment [1], the system named is Rattus norvegicus. Kind of experiment: Antidyslipidemic activity in Triton fed hyperlipidemic Charles Foster rat assessed as reduction in plasma triglyceride level at 100 mg/kg, po. Also on record: scale not given: the % may be the effect or the level left.
Experiment [2] relates to Rattus norvegicus. Kind of experiment: Antidyslipidemic activity in Triton fed hyperlipidemic Charles Foster rat assessed as reduction in plasma total cholesterol at 100 mg/kg, po. Also on record: scale not given: the % may be the effect or the level left.
In experiment [3] the test system is Rattus norvegicus. Kind of experiment: Antidyslipidemic activity in Triton fed hyperlipidemic Charles Foster rat assessed as reduction in plasma phospholipids at 100 mg/kg, po. Set-up: scale not given: the % may be the effect or the level left.
Experiment [4] concerns Rattus norvegicus. Kind of experiment: Antidyslipidemic activity in Triton fed hyperlipidemic Charles Foster rat assessed as increase in post heparin lipoprotein lipase activity by measuring free fatty acids formation rate per ml of plasma at 100 mg/kg, po.
A short description of experiment [5]: Antioxidant activity assessed as inhibition of hydroxyl radical generation at 200 ug/ml by spectrophotometry.
The species entered for experiment [6] is Rattus norvegicus. Kind of experiment: Increase in lipoprotein lipase activity in Triton fed hyperlipidemic Charles Foster rat plasma assessed as free fatty acids formation rate per ml of plasma relative to untreated Triton control. Set-up: concentration or dose not given beside the values.
Experiment [7] is described as follows: Antioxidant activity assessed as inhibition of superoxide anion radical generation at 200 ug/ml by spectrophotometry.
Experiment [8] in a line: Antioxidant activity in microsomes assessed as inhibition of lipid peroxidation by measuring MDA level at 200 ug/ml by spectrophotometry based TBARS method.

For the compound `CCOC(=O)C(C)(C)Oc1ccc(NC(=O)COc2ccc(Cl)cc2Cl)cc1`, the Activity was determined as 13% in experiment [1], 8% in experiment [2], 4% in experiment [3] and 9% in experiment [4].

In the case of `CCOC(=O)C(CC)Oc1ccc(NC(=O)COc2ccccc2C(C)CC)cc1` (stereo not drawn), the Activity in experiment [1] was 9%; in experiment [2], 10%; in experiment [3], 9%; in experiment [4], 5%.

Consider `CCOC(=O)C(C)(C)Oc1ccc(NC(=O)COc2ccccc2C(C)CC)cc1` (stereo not drawn), for which the Activity is on record as 6% in experiment [1], 7% in experiment [2], 10% in experiment [3] and 14% in experiment [4].

Consider `CCOC(=O)C(C)Oc1ccc(NC(=O)COc2ccccc2C(C)CC)cc1` (stereo not drawn), for which the inhibition in experiment [5], in experiment [7] and in experiment [8] was 25% each time. Also, the Activity in experiment [1] worked out at 24%; in experiment [6], 16%; in experiment [2], 24%; in experiment [3], 23%; in experiment [4] it was 15%.

Consider `CCOC(=O)C(C)(C)Oc1ccc(NC(=O)COc2ccc3ccccc3c2)cc1`, for which the inhibition in experiment [5] was 22%; in experiment [7], 30%; in experiment [8], 22%. Also, the Activity is recorded as 27% in experiment [1]; 22% in experiment [6]; 25% in experiment [2]; 24% in experiment [3]; 23% in experiment [4].

As to `Cc1c(C)c2c(c(C)c1O)CC[C@@](C)(CCC[C@H](C)CCC[C@H](C)CCCC(C)C)O2`, in experiment [8], the inhibition turned out to be 49%.

In the case of `CCOC(=O)CCCOc1ccc(NC(=O)COc2ccc3ccccc3c2)cc1`, the inhibition came out at 25% in experiment [5], 27% in experiment [7] and 29% in experiment [8]. The Activity in experiment [1] was 22%; in experiment [2], 21%; in experiment [3], 19%; in experiment [4], 17%.

For the compound `Cc1ccc(C)c(OCCCC(C)(C)C(=O)O)c1` [GEMFIBROZIL], the Activity in experiment [1] came out at 33%; in experiment [6], 30%; in experiment [2], 31%; in experiment [3], 33%; in experiment [4] it was 31%.

Turning to `CCOC(=O)C(C)Oc1ccc(NC(=O)CSc2ccc3ccccc3c2)cc1` (stereo not drawn), the values for the inhibition in experiment [5], in experiment [7] and in experiment [8] were 28%, 31% and 35%, respectively. The Activity in experiment [1] came out at 28%; in experiment [6] it was 26%; in experiment [2] it was 26%; in experiment [3], 24%; in experiment [4], 24%.

Take `CCOC(=O)COc1ccc(NC(=O)COc2ccccc2Cl)cc1`: the Activity in experiment [1] was found to be 6%; in experiment [2], 6%; in experiment [3], 9%; in experiment [4], 9%.

Consider `CCOC(=O)C(C)Oc1ccc(NC(=O)COc2ccc3ccccc3c2)cc1` (stereo not drawn), for which the figures for the inhibition in experiment [5], in experiment [7] and in experiment [8] were 25%, 25% and 22%, respectively. In addition, the Activity came out at 26% in experiment [1]; 24% in experiment [6]; 23% in experiment [2]; 25% in experiment [3]; 26% in experiment [4].

As for `CCOC(=O)COc1ccc(NC(=O)COc2ccc3ccccc3c2)cc1`, the Activity in experiment [1] was found to be 11%; in experiment [2] it was 14%; in experiment [3], 14%; in experiment [4], 15%.

As to `CCOC(=O)CCCOc1ccc(NC(=O)COc2ccccc2C(C)CC)cc1` (stereo not drawn), the Activity in experiment [1] was determined as 11%; in experiment [2] it was 9%; in experiment [3], 10%; in experiment [4], 13%.

On to `CCOC(=O)C(C)Oc1ccc(NC(=O)COc2ccc(Cl)cc2Cl)cc1` (stereo not drawn), for which the Activity in experiment [1] is listed as 10%; in experiment [2], 8%; in experiment [3], 7%; in experiment [4], 10%.

As to `CCOC(=O)C(CC)Oc1ccc(NC(=O)COc2ccc3ccccc3c2)cc1` (stereo not drawn), the Activity in experiment [1] is recorded as 13%; in experiment [2], 12%; in experiment [3] it was 9%; in experiment [4] it was 12%.

As to `CCOC(=O)C(CC)Oc1ccc(NC(=O)CSc2ccc3ccccc3c2)cc1` (stereo not drawn), the Activity is listed as 5% in experiment [1], 6% in experiment [2], 4% in experiment [3] and 7% in experiment [4].

Take `CCOC(=O)CCCOc1ccc(NC(=O)COc2ccccc2Cl)cc1`: the Activity in experiment [1] is 8%; in experiment [2], 9%; in experiment [3], 6%; in experiment [4], 12%.

In the case of `CCOC(=O)CCCOc1ccc(NC(=O)COc2ccc(Cl)cc2Cl)cc1`, the Activity in experiment [1] is reported as 7%; in experiment [2], 9%; in experiment [3], 8%; in experiment [4], 12%.

As for `CCOC(=O)C(C)Oc1ccc(NC(=O)COc2ccccc2Cl)cc1` (stereo not drawn), the inhibition in experiment [5] was determined as 26%; in experiment [7], 33%; in experiment [8] it was 26%. Further, the Activity in experiment [1] is given as 25%; in experiment [6] it was 21%; in experiment [2], 25%; in experiment [3], 26%; in experiment [4], 23%.

As to `CCOC(=O)C(CC)Oc1ccc(NC(=O)COc2ccc(Cl)cc2Cl)cc1` (stereo not drawn), the Activity is 5% in experiment [1], 2% in experiment [2], 3% in experiment [3] and 4% in experiment [4].

`OC[C@@H](O)[C@@H](O)[C@H](O)[C@H](O)CO`: the inhibition in experiment [5] was found to be 41%.

With `Oc1ncnc2[nH]ncc12`, in experiment [7], the inhibition is 41%.

Usually inhibition stands for how much of the control response was suppressed.
